Assay results as given in patent US7030139B2, “Compounds” (AstraZeneca AB, priority 2001, dated 2006).
Where two headings read alike, the source gives them in different places.

Legend:
[1] = molecular target: T1, hCB2 (Homo sapiens, UniProt P34972); test: hCB2 receptor binding (3H-CP55,940 displacement, membranes)
T1 construct: purchased BioSignal

[2] = molecular target: T1, hCB2; test: hCB2 GTPγS binding; type: biochemical
[3] = molecular target: T2, hCB2-Sf9 (Homo sapiens, UniProt P34972); test: Ki hCB2-Sf9 binding (compounds made in a plate); conditions: Table 2, printed in the IC50 (nM) column; n = 2; measured from 2 compounds made in a plate
T2 construct: host or cells: Sf9 (inferred from the head 'hCB2-Sf9')
T2 sequence (P34972 whole entry): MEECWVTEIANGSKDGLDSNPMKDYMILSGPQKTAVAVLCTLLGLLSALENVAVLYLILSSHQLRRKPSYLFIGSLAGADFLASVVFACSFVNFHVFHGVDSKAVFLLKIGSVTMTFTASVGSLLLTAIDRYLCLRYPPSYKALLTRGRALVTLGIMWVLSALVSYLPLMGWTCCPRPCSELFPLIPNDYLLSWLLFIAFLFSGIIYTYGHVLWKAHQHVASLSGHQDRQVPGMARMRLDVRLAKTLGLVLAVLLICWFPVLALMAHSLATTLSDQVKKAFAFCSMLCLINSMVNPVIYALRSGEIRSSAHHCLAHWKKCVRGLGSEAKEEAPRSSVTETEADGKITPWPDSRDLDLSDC

T1 sequence (P34972 whole entry): as above

| Structure (SMILES) | IC50 ([1]; hCB2 IC50 (nM)) | EC50 [2] | Emax [2] | other results |
| --- | --- | --- | --- | --- |
| CCOc1ccc(C(C)c2nc3cc(N(C)C(=O)NC(C)C)ccc3n2CC2CC2)cc1 (racemic) [Example 53, (rac)-N-[1-(Cyclopropylmethyl)-2-[1-(4-ethoxyphenyl)ethyl]1H-benzimidazol-5-yl]-N-methyl-N′-(1-methylethyl)-urea] | 36 nM | 6.7 nM | 46% | – |
| CCOc1ccc(C(C)c2nc3cc(N(C)C(=O)NC(C)C)ccc3n2CC2CC2)cc1 (single isomer, unassigned; (+)) [Example 55, (+)-N-[1-(Cyclopropylmethyl)-2-[1-(4-ethoxyphenyl)ethyl]-1H-benzimidazol-5-yl]-N-methyl-N′-(1-methylethyl)-urea] | 715 nM | – | – | – |
| CCOc1ccc(C(C)c2nc3cc(N(C)C(=O)NC(C)C)ccc3n2CC2CC2)cc1 (single isomer, unassigned; (-)) [Example 54, (−)-N-[1-(Cyclopropylmethyl)-2-[1-(4-ethoxyphenyl)ethyl]-1H-benzimidazol-5-yl]-N-methyl-N′-(1-methylethyl)-urea] | 15.5 nM | 3.4 nM | 66% | – |
| CCOc1ccc(Cc2nc3cc(C(=O)N(CC)CC)ccc3n2CCC(=O)OC)cc1 [Example 5, Methyl 3-[5-[(diethylamino)carbonyl]-2-(4-ethoxybenzyl)-1H-benzimidazol-1-yl]propanoate] | – | 65 nM | – | Ki [1]: 142 nM; Emax ([2]; read-out: % Emax, hCB2): 53% |
| CCOc1ccc(Cc2nc3cc(C(=O)N(CC)CC)ccc3n2CC2CC2)cn1 [Example 13, 1-(Cyclopropylmethyl)-2-[(6-ethoxy-3-pyridinyl)methyl]-N,N-diethyl-1H-benzimidazole-5-carboxamide] | – | 97 nM | – | Ki [1]: 133 nM; Emax ([2]; read-out: % Emax, hCB2): 93% |
| CCOc1ccc(Cc2nc3cc(CN4CCOCC4)ccc3n2CC2CC2)cc1 [Example 24, 1-(Cyclopropylmethyl)-2-(4-ethoxybenzyl)-5-(4-morpholinylmethyl)-1H-benzimidazole] | – | 81 nM | – | Ki [1]: 178 nM; Emax ([2]; read-out: % Emax, hCB2): 62% |
| CCOc1ccc(Cc2nc3cc(NC(=O)OC)ccc3n2CC2CC2)cc1 [Example 26, Methyl-1-(cyclopropylmethyl)-2-(4-ethoxybenzyl)-1H-benzimidazol-5-yl carbamate] | – | – | – | % Emax, hCB2 [2]: 295(41%); EC50 ([2]; read-out: EC50, hCB2, nM): 295 nM |
| C=CCNc1ccc2c(c1)nc(Cc1ccc(OCC)cc1)n2CC1CC1 [Example 33, N-Allyl-1-(cyclopropylmethyl)2-(4-ethoxybenzyl)-1H-benzimidazol-5-amine] | – | – | – | Ki ([1]; Table 1, human CB2 membranes, 3H-CP55,940, read-out: Ki(hCB2)): 308 nM; EC50 ([2]; Table 1, GTPγS binding, human CB2 membranes, read-out: EC50, hCB2, nM): 146 nM; Emax ([2]; Table 1, GTPγS binding, maximal stimulated binding defined with 1 μM Win 55,212-2, read-out: % Emax, hCB2): 54% |
| CCOc1ccc(Nc2nc3cc(C(=O)N(CC)CC)ccc3n2CCC(C)C)cc1 [Example 39, 2-(4-Ethoxyanilino)-N,N-diethyl-1-isopentyl-1H-benzimidazole-5-carboxamide] | – | 64 nM | – | Ki [1]: 98 nM; Emax ([2]; read-out: % Emax, hCB2): 64% |
| CCOc1ccc(Cc2nc3cc(C(=O)N(CC)CC)ccc3n2Cc2ccsc2)cc1 [Example 40, 2-[(4-Ethoxyphenyl)methyl]-N,N-diethyl-1-(3-thienylmethyl)-1H-benzimidazole-5-carboxamide] | 2.8 nM | 1.2 nM | 74% | – |
| CCOc1ccc(Cc2nc3cc(C(=O)N(CC)CC)ccc3n2C[C@@H]2CCCO2)cc1 [Example 42] | 23 nM | 5 nM | 76% | – |
| CCOc1ccc(C(O)c2nc3cc(C(=O)N(CC)CC)ccc3n2CCC(C)C)cc1 (stereo not shown) [Example 46, 2-[(4-Ethoxyphenyl)hydroxymethyl]-N,N-diethyl-(3-methylbutyl)-1H-benzimidazole-5-carboxamide] | 100 nM | 69 nM | 70% | – |
| CCOc1ccc(Cc2nc3cc(N(C)C(=O)CC(C)C)ccc3n2Cc2ccsc2)cc1 [Example 47, N-[2-[(4-Ethoxyphenyl)methyl]-1-(3-thienylmethyl)1H-benzimidazol-5-yl]-N,3-dimethyl-butanamide] | 3.3 nM | 1.4 nM | 70% | – |
| CCOc1ccc(Cc2nc3cc(N(C)C(=O)CC(C)C)ccc3n2Cc2ccc(COC(C)=O)o2)cc1 [Example 49, N-[1-[[5-[(Acetyloxy)methyl]-2-furanyl]methyl]-2-[(4-ethoxyphenyl)methyl]-1H-benzimidazol-5-yl]-N,3-dimethyl-butanamide] | 32 nM | 6.8 nM | 67% | – |
| CCOc1ccc(C(C)c2nc3cc(N(C)C(=O)CC(C)C)ccc3n2CC2CC2)cc1 (stereo not shown) [Example 52, N-[1-(Cyclopropylmethyl)-2-[1-(4-ethoxyphenyl)ethyl]-1H-benzimidazol-5-yl]-N,3-dimethyl-butanamide] | – | – | 41% | – |
| CCOc1ccc(C(C)c2nc3cc(N(C)C(=O)NC(C)C)ccc3n2CC2CCCCC2)cc1 (stereo not shown) [Example 56, N-[1-(Cyclohexylmethyl)-2-[1-(4-ethoxyphenyl)ethyl]-1H-benzimidazol-5-yl]-N-methyl-N′-(1-methylethyl)-urea] | 5.4 nM | 1.5 nM | 88% | – |
| CCOc1ccc(Cc2nc3cc(C(=O)N(CC)CC)cnc3n2Cc2ccc([N+](=O)[O-])s2)cc1 [Example 57, 2-[(4-Ethoxyphenyl)methyl]-N,N-diethyl-3-[(5-nitro-2-thienyl)methyl]-3H-imidazo[4,5-b]pyridine-6-carboxamide] | 9.5 nM | 2.8 nM | 72% | – |
| CCOc1ccc(Cc2nc3cc(N(C)C(=O)CC(C)C)cnc3n2CC2CC2)cc1 [Example 59, N-[3-(Cyclopropylmethyl)-2-[(4-ethoxyphenyl)methyl]-3H-imidazo[4,5-b]pyridin-6-yl]-N,3-dimethyl-butanamide] | 328 nM | 64 nM | 67% | – |
| CCOc1ccc(Cc2nc3cc(N(C)C(=O)NC(C)C)cnc3n2CC2CC2)cc1 [Example 60, N-[3-(Cyclopropylmethyl)-2-[(4-ethoxyphenyl)methyl]-3H-imidazo[4,5-b]pyridin-6-yl]-N-methyl-N′-(1-methylethyl)-urea] | – | – | – | IC50 ([1]; read-out: hCB2 IC50): 970 nM |
| CCOc1ccc(Cc2nc3cc(N(C)S(=O)(=O)c4ccccc4)cnc3n2CC2CC2)cc1 [Example 61, N-[3-(Cyclopropylmethyl)-2-[(4-ethoxyphenyl)methyl]-3H-imidazo[4,5-b]pyridin-6-yl]-N-methyl-benzenesulfonamide] | – | – | – | Ki [3]: 11.4 nM |
| CCOc1ccc(Cc2nc3cc(N(C)S(=O)(=O)c4cccs4)cnc3n2CC2CC2)cc1 [Example 62, N-[3-(Cyclopropylmethyl)-2-[(4-ethoxyphenyl)methyl]-3H-imidazo[4,5-b]pyridin-6-yl]-N-methyl-2-thiophenesulfonamide] | – | – | – | Ki [3]: 4.5 nM |
